The text below walks through data of patent publication US9493421B2, “Acridinedione derivatives for treating pigmentation disorders and ageing of the skin” (PIERRE FABRE DERMO-COSMETIQUE, priority 2011, dated 2016).

A word on the melting point: it is the temperature of the solid-liquid transition. What is called logP is a log measure of how a compound divides between an organic and an aqueous phase. A high value points to higher lipophilicity.

Data set [1] can be described thus: Test to study anti-oxidizing capability using chemiluminescence (Photochem Analytic Jena). In kind it is biochemical. The settings on record: quantity of sample needed for activity equivalent to 1 μg Trolox, superoxide anion trapping. As for the experimental part: This test is used to determine the anti-oxidizing capability of the molecules. It is a method which generates free radicals via photochemical signal. The intensity of oxidation is 1000 times higher than obtained under normal conditions.
Detection is performed using chemiluminescence. This allows evaluation of water-soluble and liposoluble antioxidant molecules or extracts
The results are expressed in equivalent quantity of vitamin C or Trolox (6-hydroxy-2,5,7,8-tetramethylchroman-2-carboxylic acid) respectively. Sensitivity is in the order of one nanomole.
The anti-oxidizing activity studied in this test represents the capability of specifically trapping superoxide anions by chemiluminescence.
The quantified results are expressed in Trolox equivalent (standard) or in “μg of product per 1 μg of Trolox”. This means that a quantity x of sample is needed to obtain activity equivalent to the activity detected with 1 μg of standard. It is the antioxidizing power in relation to a reference; this avoids having to take into account the concentrations tested.
The superoxide radical: O2^∘^− is generated by photochemical reaction: L+hv(UV)+O2→L*O2→L^∘^++O2^∘^− • L*: luminol in the excited state L^∘+: luminol radical Signal Detection
Part of the superoxide anions are inhibited by the antioxidants. The remaining free radicals are quantified by chemiluminescence. L^∘^++O2^∘^−→N2+AP*^2−→AP^2−+hv (luminescence)
AP*^2−: aminophthalate in the excited state

Another data set deals with B16-F10 cells. The data set can be described thus: Assay of melanin in B16-F10 cells (colorimetric, α-MSH stimulated). Particulars: 0.1 μM α-MSH. In kind it is cell-based, murine. As for the experimental part:
It is a test to measure the synthesis of melanin by colorimetric assay on a murine melanoma cell line: line B16-F10. With this test it is possible to evaluate the depigmenting or propigmenting property of active ingredients.
The B16-F10 cells were seeded in 96-well plates in DMEM medium supplemented with FCS (foetal calf serum), and incubated 24 h at 37° C., 5% CO2. The cells were stimulated with 0.1 μM α-MSH (to stimulate melanin synthesis, the observed stimulation being about 150%) and treated 72 h with the active ingredients to be assayed. Each concentration of active ingredient was assayed at least in triplicate. Total melanin and intracellular melanin dissolved in lysis buffer were assayed by absorbance read-off at 405 nm. The total proteins were assayed in the lysate and the results expressed in mg melanin/mg proteins. Percentage activity was calculated as follows: […]
A negative value indicates inhibition of the melanin synthesis and translates depigmenting activity of the compound, whereas a positive value indicates induced melanin synthesis and translates a propigmenting property of the molecule.
• B16-F10 cell lines between P10 and P20 (murine melanocytes) (ATCC, CRL-6475); • reagents: DMEM without Phenol Red (GIBCOBRL, 118800-028), 200 mM glutamax-I supplement (GIBCOBRL, 35050-038), glucose (SIGMA, G7021), PBS (GIBCOBRL, 14190-094), foetal calf serum (Invitrogen, 10270-098), trypsin-EDTA (GIBCOBRL, 25300-054), NaOH (Sigma, S8045-500G), DMSO (Sigma, 471267-11), Nle, Phe-Melanocyte Stimulating Hormone (Sigma, M-8764), melanin (Sigma, M-0418), BCA-COPPER (SIGMA, B9643 and C2284), BSA (SIGMA, P0914) B) Test to Study Anti-Oxidizing Capability Using Chemiluminescence (Photochem Analytic Jena) Principle

Data set [2] in a line: Log P (octanol/water partition coefficient). In kind it is physicochemical. The source says: Log P, also called Log Kow, is a measurement of the differential solubility of chemical compounds in two solvents (octanol/water partition coefficient).
Log P is equal to the logarithm of the ratio of the concentrations of the examined substance in octanol and in water. Log P=Log(Coct/Cwater). With this value it is possible to assess the hydrophilic or hydrophobic (lipophilic) nature of a molecule. If Log P is positive and very high, this means that the molecule under consideration is much more soluble in octanol than in water, which reflects its lipophilic nature, and conversely. A value of Log P=0 means that the molecule is distributed equally between the two phases and Coct=Cwater (C. Hansch, J. F. Quinlan, G. L. Lawrence, Linear free energy relationship between partition coefficients and the aqueous solubility of organic liquids, J. Org. Chem., 33 (1968), 347-350; C. Hansch, A. Leo, Exploring QSAR—Fundamentals and Applications in Chemistry and Biology, American Chemical Society, Washington, 1995; J. Sangster, Octanol—Water Partition Coefficients: Fundamentals and Physical Chemistry, Wiley, Chichester, 1997; W. Jorgensen, E. Duffy, Advanced Drug Delivery Reviews, (54), 2002, 355-366).

[3] abbreviates: Mus musculus, B16-F10, 72 h, negative = inhibition, positive = stimulation, read-out: Melanin synthesis on B16.

In the case of `CN1C2=C(C(=O)CC(C)(C)C2)C(c2ccc(O)c(O)c2)C2=C1CC(C)(C)CC2=O` [Example 4, 9-(3,4-dihydroxyphenyl)-3,3,6,6,10-pentamethyl-3,4,6,7,9,10-hexahydroacridine-1,8(2H,5H)-dione], in data set [1], the “μg sample per 1 μg of Trolox” value is on record as 0.017 μg sample per 1 μg of Trolox.
`COc1cc(C2C3=C(CC(C)(C)CC3=O)NC3=C2C(=O)CC(C)(C)C3)ccc1O` [Example 10, 9-(4-hydroxy-3-methoxyphenyl)-3,3,6,6-tetramethyl-3,4,6,7,9,10-hexahydroacridine-1,8(2H,5H)-dione] returned a melting point of 309.8 °C. The activation at 100 µM in the data set with B16-F10 cells (setting [3]) is 29%. Moreover, the logP in data set [2] was found to be 1.49.
In the case of `COc1cc(C2C3=C(CC(C)(C)CC3=O)N(C)C3=C2C(=O)CC(C)(C)C3)ccc1O` [Example 11, 9-(4-hydroxy-3-methoxyphenyl)-3,3,6,6,10-pentamethyl-3,4,6,7,9,10-hexahydroacridine-1,8(2H,5H)-dione], the activation at 100 µM with B16-F10 cells (setting [3]) turned out to be 47%. For the same compound, the logP in data set [2] was found to be 1.72.
With `CCN1C2=C(C(=O)CC(C)(C)C2)C(c2ccc(O)c(OC)c2)C2=C1CC(C)(C)CC2=O` [Example 12, 10-ethyl-9-(4-hydroxy-3-methoxyphenyl)-3,3,6,6-tetramethyl-3,4,6,7,9,10-hexahydroacridine-1,8(2H,5H)-dione], the activation at 50 µM in the data set with B16-F10 cells (setting [3]) worked out at 72%. Further, the lipophilicity (logP) in data set [2] was found to be 2.06.
In the case of `CCCN1C2=C(C(=O)CC(C)(C)C2)C(c2ccc(O)c(OC)c2)C2=C1CC(C)(C)CC2=O` [Example 13, 9-(4-hydroxy-3-methoxyphenyl)-3,3,6,6-tetramethyl-10-propyl-3,4,6,7,9,10-hexahydroacridine-1,8(2H,5H)-dione], the melting point came out at 259.5 °C. The activation at 50 µM in the data set with B16-F10 cells (setting [3]) turned out to be 43%. In data set [2], this compound registered a log partition coefficient (logP) of 2.55.
As for `CCCCN1C2=C(C(=O)CC(C)(C)C2)C(c2ccc(O)c(OC)c2)C2=C1CC(C)(C)CC2=O` [Example 14, 10-butyl-9-(4-hydroxy-3-methoxyphenyl)-3,3,6,6-tetramethyl-3,4,6,7,9,10-hexahydroacridine-1,8(2H,5H)-dione], the activation at 20 µM in the data set on B16-F10 cells (setting [3]) was 45%. Also, the logP in data set [2] turned out to be 2.97.
`CCCCCN1C2=C(C(=O)CC(C)(C)C2)C(c2ccc(O)c(OC)c2)C2=C1CC(C)(C)CC2=O` [Example 15, 9-(4-hydroxy-3-methoxyphenyl)-3,3,6,6-tetramethyl-10-pentyl-3,4,6,7,9,10-hexahydroacridine-1,8(2H,5H)-dione] returned a melting point of 194.5 °C. In the data set with B16-F10 cells (setting [3]), the activation at 50 µM was 42%. The compound also registered a lipophilicity (logP) in data set [2] of 3.38.
`CCCCCCN1C2=C(C(=O)CC(C)(C)C2)C(c2ccc(O)c(OC)c2)C2=C1CC(C)(C)CC2=O` [Example 16, 10-hexyl-9-(4-hydroxy-3-methoxyphenyl)-3,3,6,6-tetramethyl-3,4,6,7,9,10-hexahydroacridine-1,8(2H,5H)-dione]: the melting point was 177.7 °C. This compound had a logP in data set [2] of 3.8.
`CCCCCCCN1C2=C(C(=O)CC(C)(C)C2)C(c2ccc(O)c(OC)c2)C2=C1CC(C)(C)CC2=O` [Example 17, 10-heptyl-9-(4-hydroxy-3-methoxyphenyl)-3,3,6,6-tetramethyl-3,4,6,7,9,10-hexahydroacridine-1,8(2H,5H)-dione] showed a melting point of 154.8 °C. In addition, the activation at 20 µM with B16-F10 cells (setting [3]) is -68%. The compound also yielded a logP in data set [2] of 4.22.
As for `CCCCCCCCN1C2=C(C(=O)CC(C)(C)C2)C(c2ccc(O)c(OC)c2)C2=C1CC(C)(C)CC2=O` [Example 18, 9-(4-hydroxy-3-methoxyphenyl)-3,3,6,6-tetramethyl-10-octyl-3,4,6,7,9,10-hexahydroacridine-1,8(2H,5H)-dione], the melting point came out at 154.2 °C. Moreover, the activation at 5 µM in the data set on B16-F10 cells (setting [3]) is -59%. The compound also showed a logP in data set [2] of 4.63.
Take `CCCCCCCCCN1C2=C(C(=O)CC(C)(C)C2)C(c2ccc(O)c(OC)c2)C2=C1CC(C)(C)CC2=O` [Example 19, 9-(4-hydroxy-3-methoxyphenyl)-3,3,6,6-tetramethyl-10-nonyl-3,4,6,7,9,10-hexahydroacridine-1,8(2H,5H)-dione]: the melting point was 127 °C. Also, the activation at 5 µM with B16-F10 cells (setting [3]) is -42%. The compound also gave a logP in data set [2] of 5.05.
As to `CCCCCCCCCCCN1C2=C(C(=O)CC(C)(C)C2)C(c2ccc(O)c(OC)c2)C2=C1CC(C)(C)CC2=O` [Example 20, 9-(4-hydroxy-3-methoxyphenyl)-3,3,6,6-tetramethyl-10-undecyl-3,4,6,7,9,10-hexahydroacridine-1,8(2H,5H)-dione], the melting point stood at 118.9 °C. Further, in the data set on B16-F10 cells (setting [3]), the activation at 5 µM was -57%. Besides, the logP in data set [2] turned out to be 5.89.
For `COc1cc(C2C3=C(CC(C)(C)CC3=O)N(Cc3ccccc3)C3=C2C(=O)CC(C)(C)C3)ccc1O` [Example 21, 10-benzyl-9-(4-hydroxy-3-methoxyphenyl)-3,3,6,6-tetramethyl-3,4,6,7,9,10-hexahydroacridine-1,8(2H,5H)-dione], the activation at 100 µM in the data set with B16-F10 cells (setting [3]) came out at 48%. Moreover, the log partition coefficient (logP) in data set [2] stood at 3.46.
Consider `COc1cc(C2C3=C(CC(C)(C)CC3=O)N(CCc3ccccc3)C3=C2C(=O)CC(C)(C)C3)ccc1O` [Example 22, 9-(4-hydroxy-3-methoxyphenyl)-3,3,6,6-tetramethyl-10-phenethyl-3,4,6,7,9,10-hexahydroacridine-1,8(2H,5H)-dione], for which the logP in data set [2] stood at 3.74.
`COc1cc(C2C3=C(CC(C)(C)CC3=O)N(CCCc3ccccc3)C3=C2C(=O)CC(C)(C)C3)ccc1O` [Example 23, 9-(4-hydroxy-3-methoxyphenyl)-3,3,6,6-tetramethyl-10-(3-phenylpropyl)-3,4,6,7,9,10-hexahydroacridine-1,8(2H,5H)-dione]: the activation at 10 µM in the data set on B16-F10 cells (Mus musculus, B16-F10, at 10 μM, 72 h, negative = inhibition, positive = stimulation, read-out: Melanin synthesis on B16) is -37%. Also, the lipophilicity (logP) in data set [2] stood at 4.15.
On to `COc1cc(C2C3=C(CC(C)(C)CC3=O)N(CC(c3ccccc3)c3ccccc3)C3=C2C(=O)CC(C)(C)C3)ccc1O` [Example 24, 10-(2,2-diphenylethyl)-9-(4-hydroxy-3-methoxyphenyl)-3,3,6,6-tetramethyl-3,4,6,7,9,10-hexahydroacridine-1,8(2H,5H)-dione], for which the activation at 5 µM with B16-F10 cells (setting [3]) was -37%. This compound showed a lipophilicity (logP) in data set [2] of 5.32.
For “Nle, Phe-Melanocyte Stimulating Hormone [α-MSH, reference compound]”, the “Stimulation of melanin synthesis” value in the data set with B16-F10 cells (B16-F10 cells) is on record as “about 150%”.
